Source: US20220315895A1, “METHODS OF MAKING OLIGOPOTENT AND UNIPOTENT PRECURSORS” (Transfusion Health, LLC, priority 2019, published 2022)

Assays:
[1] = test system: CD34+ cells isolated from donor peripheral blood; experiment: Enhancement of HSCs derived from non-mobilized peripheral blood with compounds of Formula I (Example 33); assay type: cell-based; conditions: normalized fold change days 2 to 7
Method: CD34+ cells were isolated from donor peripheral blood. Standard buffy coat separation using ficoll paque was performed. Cells were pelleted and incubated with unlabeled CD64 antibody. Cells then underwent negative depletion using biotinylated CD2, CD3, CD4, CD5, CD8, CD11b, CD14, CD16, CD19, CD20, CD45RA, CD56, CD235 (in some examples CD15, CD25 and other lineage specific antibodies may also be used). Cells which bind these antibodies are depleted using streptavidin beads. The enriched progenitor pool then undergoes cell sorting for CD34+.
Isolated CD34+ cells were incubated in an in vitro culture media of Alpha MEM without phenol red with 10% (v/v) heat inactivated fetal bovine serum (FBS). When testing compounds of Formula I, two internal controls were used: a positive control (+SF conditions) and a baseline control (i.e. basic conditions (“cytokines only”)). The media components and concentrations used for the compounds tested are described in [0563] Table 2. The culture also included an antibiotic solution that includes penicillin, streptomycin, and amphotericin B to avoid contamination. Controls were included because the amount of expansion in samples obtained varies from individual to individual.
Cultures were incubated at […] (controlled by nitrogen) and 5% CO2.
Small molecule components were added separately and fresh each time the media needs to be refreshed. Cytokines can be stored together. Media renewal should occur at least every few days.
On the days indicated one-half of the volume of the cell culture was removed for data analysis (flow cytometry using a BD FACS ARIA II). The culture volume was replenished with fresh media according to the conditions tested. The data reported accounts for the dilution factor introduced in this procedure.
Separate experiments were performed for each compound tested (Compound 1.001-1.023).
Table 3, below, summarizes the relative expansive effect of Compound 1.001 to 1.023 (sample compounds) at the indicated concentration. The data in Table 3 is reported as the relative expansive effect. The relative expansive effect is a normalized value of the fold changes shown in each of FIG. 1-FIG. 23. It is calculated as shown below: […]

[2] = test system: CD34+ cells from cord blood; experiment: Expansion of cord blood CD34+ cells, seven-day culture (Example 35); assay type: cell-based, human; conditions: normalized fold change days 1 to 7
Method: CD34+ cells from cord blood were purchased from STEMCELL Technologies. Primary human CD34+ cells were isolated from cord blood samples using positive immunomagnetic separation techniques. Cells were thawed and gradually brought to room temperature. Samples were washed, then placed in overnight culture in StemSpan with 100 ng/ml each of FLT3L, TPO, SCF, and TL-6. Eighteen to twenty-four hours later (day 1), cells were counted and immunophenotyped (flow cytometry on an Invitrogen Attune N×T cytometer).
Approximately 1000 live cells were plated into each well of 96-well plates; exact cell numbers dispensed per well were quantified with flow cytometry for later calculations.
Media for testing compounds of Formula I was prepared using Alpha MEM without phenol red, 10% (v/v) heat inactivated fetal bovine serum. Culture conditions also included an antibiotic solution that includes penicillin, streptomycin, and amphotericin B to avoid contamination. Additional media components and concentrations used for the compounds tested are described in Table 5.
All incubations for this experiment took place at 3% oxygen (controlled by nitrogen) and 5% CO2. Following seven days of culture, cells from wells were collected and phenotypes were analyzed (flow cytometry on an Invitrogen Attune N×T cytometer).
Table 6 below, summarizes the relative expansive effect of the screened compounds at the indicated concentration. The data in Table 6 is reported as the relative expansive effect. The relative expansive effect is a normalized value of the fold changes shown in each of the figures. It is calculated as shown below: […]

CC(C)(C)C(=O)Nc1ccc2c(c1)C(=O)C1CCCC21 (centres unmarked) [Compound 1.001, N-(8-oxo-1,2,3,3a,8,8a-hexahydrocyclopenta[a]inden-6-yl)pivalamide]
CD90 effect (relative expansive effect on CD34+/CD133+/CD90+ cells) ([1]; sample compound 0.5 μM): ++ (0.2 ≤ x < 0.55) | CD133 effect (relative expansive effect on CD34+/CD133+ cells) ([1]; sample compound 0.5 μM): + (x < 0.2)

CC(C)(C)C(=O)Nc1ccc2c(c1)C(=O)C1CCCCC21 (centres unmarked) [Compound 1.002, N-(9-oxo-2,3,4,4a,9,9a-hexahydro-1H-fluoren-7-yl)pivalamide]
CD90 effect (relative expansive effect on CD34+/CD133+/CD90+ cells) ([1]; sample compound 16 μM): ++ (0.2 ≤ x < 0.55) | CD133 effect (relative expansive effect on CD34+/CD133+ cells) ([1]; sample compound 16 μM): + (x < 0.2)

CC(C)(C)OC(=O)Nc1ccc2c(c1)C(=O)c1ccccc1-2 [Compound 1.003, tert-butyl (9-oxo-9H-fluoren-2-yl)carbamate]
CD90 effect (relative expansive effect on CD34+/CD133+/CD90+ cells) ([1]; sample compound 0.5 μM): ++ (0.2 ≤ x < 0.55) | CD133 effect (relative expansive effect on CD34+/CD133+ cells) ([1]; sample compound 0.5 μM): ++ (0.2 ≤ x < 0.55)

CC(C)(C)Nc1ccc2c(c1)C(=O)c1ccccc1-2 [Compound 1.004, 2-(tert-butylamino)-9H-fluoren-9-one]
CD90 effect (relative expansive effect on CD34+/CD133+/CD90+ cells) ([1]; sample compound 8 μM): +++ (0.55 ≤ x < 0.9) | CD133 effect (relative expansive effect on CD34+/CD133+ cells) ([1]; sample compound 8 μM): ++ (0.2 ≤ x < 0.55)

CC(C)(C)C(=O)Nc1ccc2c(c1)C(=O)c1ccccc1-2 [Compound 1.005, N-(9-oxo-9H-fluoren-2-yl)pivalamide]
CD90 effect (relative expansive effect on CD34+/CD133+/CD90+ cells) ([1]; sample compound 0.125 μM): +++ (0.55 ≤ x < 0.9) | CD133 effect (relative expansive effect on CD34+/CD133+ cells) ([1]; sample compound 0.125 μM): ++ (0.2 ≤ x < 0.55) | CD90 effect (relative expansive effect on CD34+/CD133+/CD90+ cells) ([2]; sample compound 0.5 μM): ++ (1.44 ≤ x < 1.8) | CD133 effect (relative expansive effect on CD34+/CD133+ cells) ([2]; sample compound 0.5 μM): ++ (1.44 ≤ x < 1.8)

NC(=O)Nc1ccc2c(c1)C(=O)c1cc(NC(N)=O)ccc1-2 [Compound 1.011, 1,1′-(9-oxo-9H-fluorene-2,7-diyl)diurea]
CD90 effect (relative expansive effect on CD34+/CD133+/CD90+ cells) ([1]; sample compound 0.125 μM): ++ (0.2 ≤ x < 0.55) | CD133 effect (relative expansive effect on CD34+/CD133+ cells) ([1]; sample compound 0.125 μM): + (x < 0.2)

CC(=O)Nc1ccc2c(c1)C(=O)c1cc(NC(C)=O)ccc1-2 [Compound 1.012, N,N′-(9-oxo-9H-fluorene-2,7-diyl)diacetamide]
CD90 effect (relative expansive effect on CD34+/CD133+/CD90+ cells) ([1]; sample compound 0.25 μM): ++ (0.2 ≤ x < 0.55) | CD133 effect (relative expansive effect on CD34+/CD133+ cells) ([1]; sample compound 0.25 μM): ++ (0.2 ≤ x < 0.55)

CC(C)(C)C(=O)Nc1ccc2c(c1)C(=O)c1ccc(O)cc1-2 [Compound 1.016, N-(6-hydroxy-9-oxo-9H-fluoren-2-yl)pivalamide]
CD90 effect (relative expansive effect on CD34+/CD133+/CD90+ cells) ([1]; sample compound 16 μM): ++++ (0.9 ≤ x < 1.25) | CD133 effect (relative expansive effect on CD34+/CD133+ cells) ([1]; sample compound 16 μM): ++ (0.2 ≤ x < 0.55)

CNc1ccc2c(c1)C(O)c1ccccc1-2 (centres unmarked) [Compound 1.018, 2-(methylamino)-9H-fluoren-9-ol]
CD90 effect (relative expansive effect on CD34+/CD133+/CD90+ cells) ([1]; sample compound 4 μM): ++ (0.2 ≤ x < 0.55) | CD133 effect (relative expansive effect on CD34+/CD133+ cells) ([1]; sample compound 4 μM): + (x < 0.2)

O=C1c2ccccc2-c2ccc(F)cc21 [Compound 1.020]
CD90 effect (relative expansive effect on CD34+/CD133+/CD90+ cells) ([1]; sample compound 16 μM): ++ (0.2 ≤ x < 0.55) | CD133 effect (relative expansive effect on CD34+/CD133+ cells) ([1]; sample compound 16 μM): ++ (0.2 ≤ x < 0.55)

CC(=O)OC1c2ccccc2-c2ccc(NC(=O)C(C)(C)C)cc21 (centres unmarked) [Compound 1.024, 2-pivalamide-9H-fluoren-9-yl acetate]
CD90 effect (relative expansive effect on CD34+/CD133+/CD90+ cells) ([2]; sample compound 8 μM): ++++ (2.16 ≤ x < 2.52) | CD133 effect (relative expansive effect on CD34+/CD133+ cells) ([2]; sample compound 8 μM): +++ (1.8 ≤ x < 2.16)

COC1c2ccccc2-c2ccc(NC(=O)C(C)(C)C)cc21 (centres unmarked) [Compound 1.025, N-(9-methoxy-9H-fluoren-2-yl)pivalamide]
CD90 effect (relative expansive effect on CD34+/CD133+/CD90+ cells) ([2]; sample compound 8 μM): ++++ (2.16 ≤ x < 2.52) | CD133 effect (relative expansive effect on CD34+/CD133+ cells) ([2]; sample compound 8 μM): +++ (1.8 ≤ x < 2.16)

CC(C)(C)C(=O)Nc1ccc2c(c1)C(C#N)c1ccccc1-2 (centres unmarked) [Compound 1.026, N-(9-cyano-9H-fluoren-2-yl)pivalamide]
CD90 effect (relative expansive effect on CD34+/CD133+/CD90+ cells) ([2]; sample compound 2 μM): ++ (1.44 ≤ x < 1.8) | CD133 effect (relative expansive effect on CD34+/CD133+ cells) ([2]; sample compound 2 μM): ++ (1.44 ≤ x < 1.8)

CC(=O)Oc1ccc2c(c1)C(=O)c1cc(OC(C)=O)ccc1-2 [Compound 1.027, 9-oxo-9H-fluorene-2,7-diyl diacetate]
CD90 effect (relative expansive effect on CD34+/CD133+/CD90+ cells) ([2]; sample compound 2 μM): ++ (1.44 ≤ x < 1.8) | CD133 effect (relative expansive effect on CD34+/CD133+ cells) ([2]; sample compound 2 μM): ++ (1.44 ≤ x < 1.8)

CC(C)(C)C(=O)Nc1ccc2c(c1)/C(=N\O)c1ccccc1-2 [Compound 1.028, N-(9-(hydroxyimino)-9H-fluoren-2-yl)pivalamide]
CD90 effect (relative expansive effect on CD34+/CD133+/CD90+ cells) ([2]; sample compound 2 μM): +++ (1.8 ≤ x < 2.16) | CD133 effect (relative expansive effect on CD34+/CD133+ cells) ([2]; sample compound 2 μM): +++ (1.8 ≤ x < 2.16)

CC(=O)Nc1ccc2c(c1)C(O)c1ccccc1-2 (centres unmarked) [Compound 1.029, N-(9-hydroxy-9H-fluoren-2-yl)acetamide]
CD90 effect (relative expansive effect on CD34+/CD133+/CD90+ cells) ([2]; sample compound 8 μM): ++++ (2.16 ≤ x < 2.52) | CD133 effect (relative expansive effect on CD34+/CD133+ cells) ([2]; sample compound 8 μM): ++++ (2.16 ≤ x < 2.52)

CC(C)(C)C(=O)Oc1ccc2c(c1)C(O)c1ccccc1-2 (centres unmarked) [Compound 1.030, 9-hydroxy-9H-fluoren-2-yl pivalate]
CD90 effect (relative expansive effect on CD34+/CD133+/CD90+ cells) ([2]; sample compound 10 μM): +++ (1.8 ≤ x < 2.16) | CD133 effect (relative expansive effect on CD34+/CD133+ cells) ([2]; sample compound 10 μM): +++ (1.8 ≤ x < 2.16)

O=C(Nc1ccc2c(c1)C(O)c1ccccc1-2)C1CCCCO1 (centres unmarked) [Compound 1.031, N-(9-hydroxy-9H-fluoren-2-yl)tetrahydro-2H-pyran-2-carboxamide]
CD90 effect (relative expansive effect on CD34+/CD133+/CD90+ cells) ([2]; sample compound 10 μM): ++ (1.44 ≤ x < 1.8) | CD133 effect (relative expansive effect on CD34+/CD133+ cells) ([2]; sample compound 10 μM): +++ (1.8 ≤ x < 2.16)

O=C(Nc1ccc2c(c1)C(O)c1ccccc1-2)c1ccc(O)cc1 (centres unmarked) [Compound 1.032, 4-hydroxy-N-(9-hydroxy-9H-fluoren-2-yl)benzamide]
CD90 effect (relative expansive effect on CD34+/CD133+/CD90+ cells) ([2]; sample compound 10 μM): ++ (1.44 ≤ x < 1.8) | CD133 effect (relative expansive effect on CD34+/CD133+ cells) ([2]; sample compound 10 μM): ++ (1.44 ≤ x < 1.8)

CN(C)C(=O)Nc1ccc2c(c1)C(O)c1ccccc1-2 (centres unmarked) [Compound 1.033, 3-(9-hydroxy-9H-fluoren-2-yl)-1,1-dimethylurea]
CD90 effect (relative expansive effect on CD34+/CD133+/CD90+ cells) ([2]; sample compound 10 μM): ++ (1.44 ≤ x < 1.8) | CD133 effect (relative expansive effect on CD34+/CD133+ cells) ([2]; sample compound 10 μM): +++ (1.8 ≤ x < 2.16)

O=C(Nc1ccc2c(c1)C(O)c1ccccc1-2)C(Cl)(Cl)Cl (centres unmarked) [Compound 1.034, 2,2,2-trichloro-N-(9-hydroxy-9H-fluoren-2-yl)acetamide]
CD90 effect (relative expansive effect on CD34+/CD133+/CD90+ cells) ([2]; sample compound 10 μM): +++++ (2.52 ≤ x) | CD133 effect (relative expansive effect on CD34+/CD133+ cells) ([2]; sample compound 10 μM): +++++ (2.52 ≤ x)

Nc1ccc2c(c1)C(=O)c1ccccc1-2 [Compound 1.035]
CD90 effect (relative expansive effect on CD34+/CD133+/CD90+ cells) ([2]; sample compound 10 μM): +++ (1.8 ≤ x < 2.16) | CD133 effect (relative expansive effect on CD34+/CD133+ cells) ([2]; sample compound 10 μM): +++ (1.8 ≤ x < 2.16)

O=C1c2ccccc2-c2ccc([N+](=O)[O-])cc21 [Compound 1.036]
CD90 effect (relative expansive effect on CD34+/CD133+/CD90+ cells) ([2]; sample compound 10 μM): +++ (1.8 ≤ x < 2.16) | CD133 effect (relative expansive effect on CD34+/CD133+ cells) ([2]; sample compound 10 μM): ++ (1.44 ≤ x < 1.8)

O=C1c2ccccc2-c2ccccc21 [Compound 1.037]
CD90 effect (relative expansive effect on CD34+/CD133+/CD90+ cells) ([2]; sample compound 10 μM): ++ (1.44 ≤ x < 1.8) | CD133 effect (relative expansive effect on CD34+/CD133+ cells) ([2]; sample compound 10 μM): + (x < 1.44)
